Measurements reported in paper PMC12456999, “Sulfonyl Homoserine Lactones Are Tunable Probes to Inhibit the Quorum Sensing Receptor RhlR and Reduce Swarming Motility in Pseudomonas aeruginosa” (ACS Infectious Diseases, 2025).
Like-named read-outs stand apart in the source and are kept apart here. Marks after values point to notes of the source that are not given here.

Key:
[1] = target: T1, RhlR (Pseudomonas aeruginosa, UniProt P54292); test: E. coli (JLD271) RhlR reporter agonism assay (no BHL added); type: cell-based; details: for Emax: read-out: Max Activation (RhlR), E. coli JLD271 RhlR reporter, no BHL added, high concentrations
T1 construct: expressed in transfected cells; host or cells: E. coli JLD271 (K-12 ΔlacX74 sdiA271::Cam) carrying pJN105-R2 (RhlR expression) and pSC11-rhlI (rhlI'-lacZ reporter)
T1 sequence (P54292 whole entry): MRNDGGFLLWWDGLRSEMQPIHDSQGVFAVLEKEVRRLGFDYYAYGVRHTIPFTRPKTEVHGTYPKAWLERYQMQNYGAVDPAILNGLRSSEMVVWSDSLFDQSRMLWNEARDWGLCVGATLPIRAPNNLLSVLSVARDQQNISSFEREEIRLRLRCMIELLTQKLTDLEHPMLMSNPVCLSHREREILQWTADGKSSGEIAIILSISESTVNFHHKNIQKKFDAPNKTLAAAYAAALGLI
Protocol: (§1) To start, the sulfonyl HLs were evaluated for their ability to antagonize RhlR using a previously described E. coli strain (JLD271) harboring a RhlR expression plasmid and a rhlI reporter plasmid. This E. coli reporter produces RhlR, and protein activity in the presence of an added small molecule can be measured via the production of β-galactosidase as quantified via luminescence (see Methods). Compounds were screened in competition against RhlR’s native ligand, BHL (at its EC50 value in this strain, 10 μM), over a range of concentrations to generate antagonism dose–response curves (see Supporting Information) and calculate IC50 values (listed in Table ). A small set of compounds was also screened for RhlR agonism in the E. coli reporter; the agonism assay format was identical to the antagonism assay, except no BHL was added.
(§2) RhlR activity in E. coli strain JLD271 (ΔsdiA) was measured via a β-galactosidase reporter (rhI-lacZ) using the Promega Beta-Glo Assay System as previously described. RhlR activity in P. aeruginosa PA14 (ΔrhlIΔlasI) was measured via a GFP reporter (rhlA-gfp). […] See Supporting Information for both reporter protocols.
(§3) Supporting Information — Aguirre-Figueroa et al.
(§4) E. coli and P. aeruginosa RhlR reporter assay protocols.
E. coli RhlR reporter assay. RhlR activity in E. coli strain JLD271 (ΔsdiA) was measured via a β-galactosidase reporter using the Promega Beta-Glo® Assay System as previously described.10 A schematic of the reporter plasmids and assay protocol is shown in Scheme S1. Briefly, a single colony of E. coli JLD271 harboring the RhlR expression plasmid pJN105-R and the rhlI-lacZ transcriptional fusion reporter pSC11-R (Table S1) was grown in LB medium with 100 μg/mL ampicillin and 10 μg/mL gentamicin overnight (~16 h). The culture was diluted 1:10 in fresh LB medium and grown to an OD600 = 0.25 (0.23–0.28) (~0.5 h). Arabinose was added to a final concentration of 4 mg/mL to induce the expression of pJN105-R. Aliquots (2 μL) of compound DMSO stock solution or serial dilution were added to the inner wells (i.e., non-periphery rows) of a 96-well microtiter plate. To six inner wells, DMSO alone (vehicle) was added as a negative control. For agonism assays, BHL was added to six inner wells as a positive control (to achieve 1 mM). For antagonism assays, BHL was added to six inner wells as a positive control and to all of the other sample wells except for the vehicle control wells (to achieve 10 μM ). […]
After the incubation period, the OD600 of each well was measured using a plate reader. […] After incubation, luminescence of each well was measured using a plate reader. To determine levels of RhlR activity, raw luminescence was divided by OD600 to correct for growth variation and then normalized to the negative (0%) and positive (100%) control wells. […]

[2] = target: T1, RhlR; test: P. aeruginosa RhlR reporter agonism assay; type: cell-based
Protocol: as §2, §3
P. aeruginosa RhlR reporter assay. RhlR activity in P. aeruginosa PA14 ΔrhlIΔlasI was measured via a GFP reporter. Briefly, a single colony of P. aeruginosa strain PA14 ΔrhlIΔlasI harboring the transcriptional fusion reporter pPROBE-GT rhlA-GFP (Table S1) was grown in LB medium with 40 μg/mL gentamicin overnight (~20 h). The culture was diluted 1:100 in fresh LB medium, without antibiotic, to an OD600 = 0.25 (0.22–0.30) (~1 h). Aliquots (2 μL) of compound DMSO stock solution or serial dilution were added to the inner wells (i.e., non-periphery rows) of a black, clear bottom 96-well plate. To 12 inner wells, DMSO alone (vehicle) was added to serve as controls (negative and positive). For the six negative control wells (no BHL), 198 μL of bacterial culture plus OdDHL (to achieve 10 μM) were added. […] After incubation, the OD600 and GFP production (excitation at 500 nm, emission at 540 nm) were read for each well using a plate reader. […]

[3] = target: T1, RhlR; details: P. aeruginosa RhlR reporter systems; reference number not given; cited from earlier work
[4] = tested on: other LuxR homologues; parameters: method as in Kim et al.; details: ref Kim et al.; cited from earlier work
[5] = target: T1, RhlR; test: E. coli (JLD271) RhlR reporter antagonism assay, in competition with BHL; type: cell-based; details: for max. RhlR inhibition (%): E. coli RhlR reporter, BHL at 10 μM set to 0%, media control set to 100%; for activity profile in RhlR: E. coli RhlR reporter dose-response curves
Protocol: as §1, §2, §3, §4
E. coli RhlR reporter assay. RhlR activity in E. coli strain JLD271 (ΔsdiA) was measured via a β-galactosidase reporter using the Promega Beta-Glo® Assay System as previously described.10 A schematic of the reporter plasmids and assay protocol is shown in Scheme S1. Briefly, a single colony of E. coli JLD271 harboring the RhlR expression plasmid pJN105-R and the rhlI-lacZ transcriptional fusion reporter pSC11-R (Table S1) was grown in LB medium with 100 μg/mL ampicillin and 10 μg/mL gentamicin overnight (~16 h). The culture was diluted 1:10 in fresh LB medium and grown to an OD600 = 0.25 (0.23–0.28) (~0.5 h). Arabinose was added to a final concentration of 4 mg/mL to induce the expression of pJN105-R. Aliquots (2 μL) of compound DMSO stock solution or serial dilution were added to the inner wells (i.e., non-periphery rows) of a 96-well microtiter plate. To six inner wells, DMSO alone (vehicle) was added as a negative control. For agonism assays, BHL was added to six inner wells as a positive control (to achieve 1 mM). For antagonism assays, BHL was added to six inner wells as a positive control and to all of the other sample wells except for the vehicle control wells (to achieve 10 μM ). Subculture (198 μL) was then dispensed into each inner well. To the outer (periphery) wells, 200 μL of water were added to maintain humidity during incubation. Plates were then incubated for 4 h (shaking) at 37 °C.
Scheme S1. Schematic of E. coli reporter plasmids and assay. (A) Representation of plasmids used in the heterologous reporter system. (B) General reporter assay workflow. BioRender used in […]
After the incubation period, the OD600 of each well was measured using a plate reader. Cell dilution plates were prepared by transferring 10 μL from the incubated culture plate wells to a fresh 96-well plate and adding 90 μL of 18 MΩ water to each well. Next, 10 μL aliquots of diluted Beta-Glo® reagent (1:2 with 18 MΩ water) were added to each well of a white 384-well microtiter plate, followed by 10 μL of culture from each well of the dilution plate. The 384-well plate was incubated (without shaking; i.e., static) for 30 min at 30 °C. After incubation, luminescence of each well was measured using a plate reader. To determine levels of RhlR activity, raw luminescence was divided by OD600 to correct for growth variation and then normalized to the negative (0%) and positive (100%) control wells.
Dose-response reporter assay data for compounds in the E. coli RhlR reporter.
Dose-response curves for RhlR antagonism by compounds against 10 μM BHL using the E. coli JLD271 RhlR reporter are provided below. Compound names are indicated on the x-axis of each plot.
All assays performed in triplicate as at least three separate biological replicates. […]

SMILES	max. RhlR inhibition (%) [5]	Emax [1] [%]	activity profile in RhlR [5]	also measured
CCCC(=O)N[C@H]1CCOC1=O [BHL, N-butanoyl L-homoserine lactone, reference compound]				EC50 [1]: 10 µM; IC50 [1]: 8.73 µM; EC50 [2]: 4.47 µM; EC50 [3]: 5 to 10 µM
O=C1OCC[C@@H]1NS(=O)(=O)c1ccccc1 [Compound 57]	93%			antagonism of other LuxR homologues [4]: ~50%; IC50 ([5]; IC50, E. coli JLD271 RhlR reporter, against 10 μM BHL): 715 µM
O=C1OCC[C@@H]1NS(=O)(=O)c1cc(Cl)cc(Cl)c1 [Compound 50, 3,5-Cl-BSHL]		30	partial agonist behavior	
O=C1OCC[C@@H]1NS(=O)(=O)Cc1ccc(C(F)(F)F)cc1 [Compound 15, 4-CF3 BnSHL]	35 ^f %	38	partial agonist	
